# Results as given in PMC6749073 (Frontiers in Pharmacology, 2019).
# Legend:
# normal ICR mice = experiment: LD50 in normal ICR mice; format: in vivo; conditions: tail vein injection
# Description: After injection, the animals’ condition was monitored every day for over 1 week by an observer who was blinded to the dose and drug allocation.
# Estimates for ED50 and LD50 were calculated through nonlinear regression, data were fitted to a sigmoidal dose-response relationship in Prism (version 4.0a; GraphPad Software, Inc., San Diego, CA). The data were fitted to the equation:
# Y=Ymin+Ymax−Ymin/1+10^(LogED50−X)∗HillSlope
# where X is the logarithm of concentration, and Y is the response.
# H292 = experiment: MTT cell viability assay, H292; format: cell-based, human; conditions: 48 h
# Description: (§1) Cells were seeded at a density of 1 × 10^4 cells per well in 96-well plates. The following day, these cells were washed with PBS and exposed to different concentrations of testing compounds in culture medium for 48 h. MTT solution (10 μl at 5 mg/ml) was added to each well. After 4 h of incubation at 37°C, the medium was removed, and the insoluble precipitate was dissolved in 100 μl DMSO (Sigma, St. Louis, MO, USA). The absorbance of the dissolved solution at 490 nm was measured using a microplate reader (TECAN A-5082; Megllan, Austria). Cell viability percentages were calculated by dividing the mean optical density (OD) of compound-containing wells by that of the control wells. Each experiment was replicated three times. The IC50 of testing drugs was calculated with Statistical Product and Service Solutions software (SPSS, version 16.0).
# LTEP-A-2 = experiment: MTT cell viability assay, LTEP-A-2; format: cell-based, human; conditions: 48 h
# Description: as §1
# Calu-3 = experiment: MTT cell viability assay, Calu-3; format: cell-based, human; conditions: 48 h
# Description: as §1
# A549/DDP = experiment: MTT cell viability assay, A549/DDP; format: cell-based, human; conditions: A549/DDP (DDP-resistant), 48 h
# Description: as §1
# LTEP-A-2 xenograft tumor = LTEP-A-2 xenograft tumor growth in nude mice; format: in vivo; conditions: comparable to DDP 6 mg/kg and CBP 60 mg/kg
# [1] = Biodistribution of Pt by atomic absorption spectrometry in A549 xenograft nude mice; format: in vivo; conditions: 6 h after administration; diplatin 120 mg/kg vs CBP 70 mg/kg (equivalent Pt dose), i.v.
# Description: At each time point of 10 min, 2 h, 6 h, and 24 h after administration, six mice were sacrificed. The tumors, organs/tissues, and blood were immediately collected. Then, Pt concentration was measured by atomic absorption spectrometry, counting the weight/volume of the tumors, tissues, organs, or blood.
# At each time point of 10 min, 2 h, 6 h and 24 h after administration, 6 mice were sacrificed. The tumors, organ/tissue, and blood were immediately collected. Then, Pt concentration was measured by atomic absorption spectrometry, counting the weight/volume of the tumors, tissues or organs/blood.
# A549 and H292 cells = experiment: EdU incorporation assay; format: cell-based, human; conditions: 48 h; diplatin 50 μM, DDP 5 μM, CBP 100 μM
# Description: Cell proliferation was analyzed by measurement of DNA synthesis as identified by the EdU cell proliferation assay, which was applied in accordance with product manufacturer instructions. Cells (5 × 10^4 cells per well) were cultured in triplicate in 24-well plates and treated with testing compounds for 48 h. Then the cells were incubated with 50 μM EdU for an additional 2 h at 37°C. Cells were fixed with 4% formaldehyde for 30 min and were permeabilized with 0.5% Triton X-100 for 10 min at room temperature. After washing with PBS three times, cells were incubated for 30 min with 1× Apollo reaction cocktail. Finally, cells were stained with 10 μg/ml of Hoechst 33342 for 30 min and then imaged using a confocal laser scanning microscope (FV1000; Olympus, Japan). The percentage of EdU^+ cells was quantified using ImageJ software by dividing the mean OD of EdU^+ cells to the mean OD of Hoechst-labeled cells.
# H292 cells = experiment: Cell cycle by PI flow cytometry, H292; format: cell-based, human; conditions: diplatin 50 μM, DDP 5 μM, CBP 100 μM
# Description: (§2) Then, the cells were trypsinized, washed with PBS, and fixed in 1.5 ml 95% ethanol and left at 4°C overnight. They were then incubated with RNase and stained with propidium iodide (PI) (Multi Sciences Biotech Co., Ltd). PI absorbance was determined using a Cytomics FC500 Flow Cytometer (Beckman Coulter, USA).
# H460 cells = experiment: Cell cycle by PI flow cytometry, H460; format: cell-based, human; conditions: diplatin 50 µM, DDP 5 µM, CBP 100 µM
# Description: as §2
# A549/DDP xenograft tumor = conditions: diplatin 120 mg/kg vs DDP 6 mg/kg and CBP 60 mg/kg
# Description: Cells in logarithmic growth were washed with PBS and suspended in serum-free medium. Portions of the suspension (5 × 10^6 cells in 0.1 ml/mouse) were mixed at a 3:1 ratio with Matrigel basement membrane matrix and injected subcutaneously into the mice. Following 2 weeks of growth, tumor tissues were cut into multiple 2 × 2 × 2 mm^3 pieces and implanted using a range trocar subcutaneously (s.c. injection) into the left forepaw armpit of each mouse ([Jiang et al., 2017]). Treatment with pharmacology was started when the tumors reached an average volume of 100–200 mm^3. The mice were randomly divided into six groups (n = 14/group).
# Body weight and tumor size were assessed every 3 days. Tumor size was measured using a caliper, the volumes were calculated according to the following standard formula: V = (L × W^2)/2 (V = tumor volume, L = largest diameter of tumor, W = smallest diameter of tumor). On day 25, all mice were sacrificed by cervical dislocation, and the tumors were removed and weighed.
structure (smiles),measurement,setting,value
CCN(CC)CCCCC1C(=O)[O][Pt][O]C1=O.N[C@@H]1CCCC[C@H]1N.O=P(O)(O)O [Diplatin],Mice LD50,normal ICR mice,496 mg/kg
same,IC50,H292,30.9 µM
same,IC50,LTEP-A-2,24.6 µM
same,IC50,Calu-3,161 µM
same,IC50,A549/DDP,133 µM
same,effect on LTEP-A-2 xenograft tumor volume and weight,LTEP-A-2 xenograft tumor,significant inhibition on xenograft tumor volume and weight
same,"Pt accumulation in the kidneys, times higher than CBP",[1],2.2 times
same,EdU incorporation,A549 and H292 cells,dramatically decreased
same,effect on cell cycle distribution,H292 cells,failed to arrest any portion of the cell cycle
same,effect on cell cycle distribution,H460 cells,failed to arrest the cells in the G2/M phase
same,antitumor activity in A549/DDP xenograft tumor,A549/DDP xenograft tumor,more potent antitumor activities than DDP and CBP
